From patent US9149039B2, “Anthranilic diamide/polymer propagule-coating compositions” (E I DU PONT DE NEMOURS AND COMPANY, priority 2011, dated 2015)

System: Spodoptera frugiperda
Assay: Laboratory test of 2nd instar larva of Spodoptera frugiperda on maize leaves (mortality)
Assay type: in vivo

## CNC(=O)c1cc(Cl)cc(C)c1NC(=O)c1cc(Br)nn1-c1ncccc1Cl [Compound 2, 3-bromo-N-[4-chloro-2-methyl-6-[(methylamino)carbonyl]phenyl]-1-(3-chloro-2-pyridinyl)-1H-pyrazole-5-carboxamide]
50% mortality within 72 h
  concentration per g of leaf tissue resulting in 50% mortality within 72 h: 0.033 micrograms per g of leaf tissu
100% mortality within 72 h
  concentration per g of tissue needed to achieve 100% mortality within 72 h: 0.037 micrograms per g of tissue
